In ChEMBL document CHEMBL1152708, “Deconstructing estradiol: removal of B-ring generates compounds which are potent and subtype-selective estrogen receptor agonists” (Bioorg Med Chem Lett, 2009):

Columns and labels:
[1] = Selectivity ratio of RBA for ERbeta to RBA for ERalpha
[2] = target: T1, Estrogen receptor (Homo sapiens) (UniProt P03372); assay: Displacement of [3H]estradiol form ERalpha assessed as relative binding affinity relative to estradiol
T1 sequence (whole entry): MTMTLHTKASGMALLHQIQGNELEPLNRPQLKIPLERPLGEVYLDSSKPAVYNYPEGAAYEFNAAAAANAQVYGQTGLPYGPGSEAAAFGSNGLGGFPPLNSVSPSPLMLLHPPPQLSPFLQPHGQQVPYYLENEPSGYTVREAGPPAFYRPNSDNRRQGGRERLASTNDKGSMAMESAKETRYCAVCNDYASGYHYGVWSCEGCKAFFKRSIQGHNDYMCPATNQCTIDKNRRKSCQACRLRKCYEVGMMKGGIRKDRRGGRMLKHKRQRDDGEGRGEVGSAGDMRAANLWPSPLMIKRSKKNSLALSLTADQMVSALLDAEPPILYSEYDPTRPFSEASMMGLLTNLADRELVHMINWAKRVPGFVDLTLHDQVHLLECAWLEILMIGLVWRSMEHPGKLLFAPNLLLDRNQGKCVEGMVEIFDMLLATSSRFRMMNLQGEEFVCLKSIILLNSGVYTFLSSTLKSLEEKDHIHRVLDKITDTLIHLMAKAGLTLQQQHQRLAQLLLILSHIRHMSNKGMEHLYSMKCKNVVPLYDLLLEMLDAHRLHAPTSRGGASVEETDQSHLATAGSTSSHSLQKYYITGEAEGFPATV

[3] = target: Estrogen receptor beta (Homo sapiens) (UniProt Q92731); assay: Displacement of [3H]estradiol form ERbeta assessed as relative binding affinity relative to estradiol
[4] = target: Estrogen receptor beta (Homo sapiens) (UniProt Q92731); assay: Activity at ERbeta expressed in CHO cells co-transfected with ERE plasmid assessed as relative transcriptional activation at 10 nM by luciferase reporter assay relative to estradiol; format: cell-based
[5] = target: T1, Estrogen receptor (Homo sapiens); assay: Activity at ERalpha expressed in CHO cells co-transfected with ERE plasmid assessed as relative transcriptional activation at 10 nM by luciferase reporter assay relative to estradiol; format: cell-based

Chain of Estrogen receptor beta (Homo sapiens) (Q92731 whole entry): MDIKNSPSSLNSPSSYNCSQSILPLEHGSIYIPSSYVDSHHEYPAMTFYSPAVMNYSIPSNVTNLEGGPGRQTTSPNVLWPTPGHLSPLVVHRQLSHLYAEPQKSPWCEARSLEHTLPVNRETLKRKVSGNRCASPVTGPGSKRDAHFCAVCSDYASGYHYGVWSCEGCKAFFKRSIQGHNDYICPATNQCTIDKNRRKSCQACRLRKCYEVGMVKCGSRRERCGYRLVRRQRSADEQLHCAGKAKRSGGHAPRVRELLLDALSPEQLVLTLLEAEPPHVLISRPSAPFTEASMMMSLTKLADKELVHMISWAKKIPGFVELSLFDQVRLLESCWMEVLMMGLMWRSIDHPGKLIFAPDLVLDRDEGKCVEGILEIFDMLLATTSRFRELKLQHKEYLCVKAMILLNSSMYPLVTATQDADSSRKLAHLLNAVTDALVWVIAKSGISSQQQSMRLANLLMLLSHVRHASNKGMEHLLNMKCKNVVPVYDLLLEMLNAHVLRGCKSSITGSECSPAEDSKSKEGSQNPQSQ

Row | Structure (SMILES) | Selectivity ratio [1] | RBA [2] | RBA [3] | Activity [4] | Activity [5]
1 | C[C@]12CC[C@H](c3cc(F)c(O)c(F)c3)C[C@@H]1CC[C@@H]2O | 7 | 0.04% | 0.28% | – | –
2 | C[C@]12CC[C@@H](c3ccc(O)cc3)C[C@@H]1CC[C@@H]2O | 9.8 | 0.06% | 0.59% | – | –
3 | O=c1c(-c2ccc(O)cc2)coc2cc(O)cc(O)c12 | 41 | – | – | – | –
4 | C[C@]12CC[C@H](c3ccc(O)c(F)c3)C[C@@H]1CC[C@@H]2O | 8.7 | 1% | 8.7% | 14% | 8.3%
5 | Cc1cc(O)ccc1[C@H]1CC[C@@]2(C)[C@@H](CC[C@@H]2O)C1 | 12 | 2.8% | 33.6% | 149% | 9.7%
6 | C=Cc1cc(O)cc2nc(-c3ccc(O)c(F)c3)oc12 | 226 | – | – | – | –
7 | C[C@]12CC[C@H](c3ccc(O)cc3F)C[C@@H]1CC[C@@H]2O | 5 | 27% | 135% | 146% | 44%
8 | C[C@]12CC[C@H](c3ccc(O)cc3Cl)C[C@@H]1CC[C@@H]2O | 3.4 | 49% | – | – | –
9 | C[C@]12CC[C@H](c3cc(F)c(O)cc3F)C[C@@H]1CC[C@@H]2O | 8.7 | 0.38% | 3.3% | – | –
10 | C[C@]12CC[C@H](c3cc(F)c(O)c(F)c3F)C[C@@H]1CC[C@@H]2O | 9.1 | 0.19% | 1.73% | – | –
11 | C[C@]12CC[C@H](c3ccc(O)cc3)C[C@@H]1CC[C@@H]2O | 14 | 1.5% | 21.5% | 164% | 4.3%
12 | C[C@]12CC[C@H](c3ccc(O)c(F)c3F)C[C@@H]1CC[C@@H]2O | 9.3 | 4.6% | 43% | – | –
